Experimental data: patent publication US6051589A, “Diphenyloxazoline derivatives” (Bayer Aktiengesellschaft, priority 1994, dated 2000)
Where two headings read alike, the source gives them in different places.

Legend:
[1] = partition coefficient log p (octanol/water); type: physicochemical
[2] = tested on: red spider mite Tetranychus urticae; assay: Tetranychus Test (OP resistant/dipping treatment); type: in vivo; details: after 7 days, concentration of active compound 0.01%, all developmental stages, bean plants, OP resistant
Description: Tetranychus Test (OP resistant/dipping treatment)
Solvent: 7 parts by weight of dimethylformamide
(§1) Emulsifier: 1 part by weight of alkylaryl polyglycol ether
To produce a suitable preparation of active compound, 1 part by weight of active compound is mixed with the stated amount of solvent and the stated amount of emulsifier, and the concentrate is diluted with emulsifier-containing water to the desired concentrations.
Bean plants (Phaseolus vulgaris) which are heavily infested with all developmental stages of the red spider mite Tetranychus urticae are dipped in a preparation of the active compound of the desired concentration.
After the desired time, the action in percent is determined. 100% means that all the spider mites have been killed, 0% means that none of the spider mites have been killed.

[3] = tested on: mustard beetle larvae (Phaedon cochleariae); assay: Phaedon Larvae Test; type: in vivo; details: concentration of active compound 0.1%, cabbage leaves, read-out: degree of mortality
Description: Solvent: 3 parts by weight of dimethylformamide
as §1
To produce a suitable preparation of active compound, 1 part by weight of active compound is mixed with the stated amount of solvent and the stated amount of emulsifier, and the concentrate is diluted with water to the desired concentration.
After the desired time, the destruction in % is determined. 100% means that all the beetle larvae have been killed; 0% means that none of the beetle larvae have been killed.

| logD ([1]; pH 7.5, read-out: log p) | Structure (SMILES) | logD ([1]; pH: 7.4, read-out: partition coefficient log p (octanol/water)) | degree of mortality [2] [%] | mortality at 0.1 % [3] [%] |
| --- | --- | --- | --- | --- |
| – | CC(C)(C)c1ccc(C2COC(c3c(F)c(F)cc(F)c3F)=N2)cc1 (stereo not shown) [Example 1, 4-(4-tert-butylphenyl)-2-(2,3,5,6-tetrafluorophenyl)-1,3-oxazoline] | 4.7 | 98 | 65 |
| 5.12 | CC(C)(C)c1ccc(C2COC(c3c(F)c(F)c(F)c(F)c3F)=N2)cc1 (stereo not shown) [Example 3] | – | – | – |
| 4.78 | CC(C)(C)c1ccc(C2COC(c3cc(F)c(F)c(F)c3F)=N2)cc1 (stereo not shown) [Example 4] | – | – | – |
| 5.65 | CC(C)(C)c1ccc(C2COC(c3cc(F)c(Cl)cc3Cl)=N2)cc1 (stereo not shown) [Example 6] | – | – | – |
| 4.43 | CC(C)(C)c1ccc(C2COC(c3c(F)cc(F)cc3F)=N2)cc1 (stereo not shown) [Example 7] | – | – | – |
| 4.45 | CC(C)(C)c1ccc(C2COC(c3c(F)ccc(F)c3F)=N2)cc1 (stereo not shown) [Example 8] | – | – | – |
| 5.13 | CC(C)(C)c1ccc(C2COC(c3c(F)cc(C(F)(F)F)cc3F)=N2)cc1 (stereo not shown) [Example 9] | – | – | – |
| 5.35 | CC(C)Cc1ccc(C2COC(c3c(F)c(F)cc(F)c3F)=N2)cc1 (stereo not shown) [Example 12] | – | – | – |
| 3.69 | Cc1ccc(C2COC(c3c(F)c(F)cc(F)c3F)=N2)cc1 (stereo not shown) [Example 14] | – | – | – |

| Structure (SMILES) | logD ([1]; pH 7.5, read-out: log p) | logD ([1]; pH: 7.4, read-out: partition coefficient log p (octanol/water)) | degree of mortality [2] [%] | mortality at 0.1 % [3] [%] |
| --- | --- | --- | --- | --- |
| COc1c(F)cc(F)c(F)c1C1=NC(c2ccc(C(C)(C)C)cc2)CO1 (stereo not shown) [Example 2] | 4.59 | – | 98 | 65 |
| CC(C)(C)c1ccc(C2COC(c3cc(F)c(F)cc3F)=N2)cc1 (stereo not shown) [Example 5] | 4.78 | – | 98 | – |
